The values below come from patent publication US20220062278A1, “SMALL MOLECULE INHIBITORS OF THE ANDROGEN RECEPTOR ACTIVITY AND/OR EXPRESSION AND USES THEREOF” (Arizona Board of Regents on Behalf of the Univeristy of …, priority 2018, published 2022).

The first test has as its target T1, AR (Homo sapiens, UniProt P10275).
T1 sequence (P10275 669-920 limits assumed): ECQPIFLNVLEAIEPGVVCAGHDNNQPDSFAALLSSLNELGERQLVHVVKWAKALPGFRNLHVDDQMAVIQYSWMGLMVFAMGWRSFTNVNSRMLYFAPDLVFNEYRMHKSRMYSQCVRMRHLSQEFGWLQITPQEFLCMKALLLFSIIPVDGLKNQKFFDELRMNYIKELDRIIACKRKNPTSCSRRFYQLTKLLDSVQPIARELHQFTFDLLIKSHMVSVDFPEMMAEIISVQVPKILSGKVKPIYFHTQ
Description: GeneBlazer assay, inhibition against AR activity. The class given is cell-based. Particulars: 10 uM; Table II. The source says: Tables II, III and IV show % inhibition against AR activity at 10 μm within a GeneBlazer assay, and IC50 values (nM) in GeneBlazer assay.
For orientation: inhibition means the change of the read-out against control, counted positive when it falls. With `CCCCn1nnnc1C(c1ccc2ccccc2c1)N1CCN(c2c(Cl)cncc2Cl)CC1` (stereo not shown) [Compound 40, 1-((1-butyl-1H-tetrazol-5-yl)(naphthalen-2-yl)methyl)-4-(3,5-dichloropyridin-4-yl)piperazine], the inhibition at 10 µM stood at 87.6%.

For the molecule `CC(C)(C)n1nnnc1C(c1ccc2ccccc2c1)N1CCN(c2c(Cl)cncc2Cl)CC1` (stereo not shown) [Compound 41, 1-((1-(tert-butyl)-1H-tetrazol-5-yl)(naphthalen-2-yl)methyl)-4-(3,5-dichloropyridin-4-yl)piperazine], the inhibition at 10 µM came out at 108%.

Regarding `CC(C)(C)n1nnnc1C(/C=C/c1ccccc1)N1CCN(c2c(Cl)cncc2Cl)CC1` (stereo not shown) [Compound 43, (E)-1-(1-(1-(tert-butyl)-1H-tetrazol-5-yl)-3-phenylallyl)-4-(3,5-dichloropyridin-4-yl)piperazine], the inhibition at 10 µM stood at 111%.

Regarding `CCCCn1nnnc1C(c1cc2ccccc2[nH]1)N1CCN(c2c(Cl)cncc2Cl)CC1` (stereo not shown) [Compound 46, 2-((1-butyl-1H-tetrazol-5-yl)(4-(3,5-dichloropyridin-4-yl)piperazin-1-yl)methyl)-1H-indole], the inhibition at 10 µM worked out at 102%.

Regarding `CC(C)(C)n1nnnc1C(c1cc2ccccc2[nH]1)N1CCN(c2c(Cl)cncc2Cl)CC1` (stereo not shown) [Compound 47, 2-((1-(tert-butyl)-1H-tetrazol-5-yl)(4-(3,5-dichloropyridin-4-yl)piperazin-1-yl)methyl)-1H-indole], the inhibition at 10 µM was found to be 114%.

On to `CCCCn1nnnc1C(c1ccc(C)o1)N1CCN(c2c(Cl)cncc2Cl)CC1` (stereo not shown) [Compound 48, 1-((1-butyl-1H-tetrazol-5-yl)(5-methylfuran-2-yl)methyl)-4-(3,5-dichloropyridin-4-yl)piperazine], for which the inhibition at 10 µM was 100%.

As for `Cc1ccc(C(c2nnnn2C(C)(C)C)N2CCN(c3c(Cl)cncc3Cl)CC2)o1` (stereo not shown) [Compound 49, 1-((1-(tert-butyl)-1H-tetrazol-5-yl)(5-methylfuran-2-yl)methyl)-4-(3,5-dichloropyridin-4-yl)piperazine], the inhibition at 10 µM stood at 100%.

Consider `CC(C)n1nnnc1C(c1ccco1)N1CCN(c2c(Cl)cncc2Cl)CC1` (stereo not shown) [Compound 50, 1-(3,5-dichloropyridin-4-yl)-4-(furan-2-yl(1-isopropyl-1H-tetrazol-5-yl)methyl)piperazine], for which the inhibition at 10 µM was 96.7%.

On to `CC(C)n1nnnc1C(c1ccnc2ccccc12)N1CCN(c2c(Cl)cncc2Cl)CC1` (stereo not shown) [Compound 51, 4-((4-(3,5-dichloropyridin-4-yl)piperazin-1-yl)(1-isopropyl-1H-tetrazol-5-yl)methyl)quinoline], for which the inhibition at 10 µM is 101%.

Turning to `CCCCC(c1nnnn1C(C)C)N1CCN(c2c(Cl)cncc2Cl)CC1` (stereo not shown) [Compound 52, 1-(3,5-dichloropyridin-4-yl)-4-(1-(1-isopropyl-1H-tetrazol-5-yl)pentyl)piperazine], the inhibition at 10 µM was 95.8%.

`COC(=O)Cn1nnnc1C(c1cccc(O)c1)N1CCN(c2c(Cl)cncc2Cl)CC1` (stereo not shown) [Compound 53, Methyl 2-(5-((4-(3,5-dichloropyridin-4-yl)piperazin-1-yl)(3-hydroxyphenyl)methyl)-1H-tetrazol-1-yl)acetate]: the inhibition at 10 µM amounted to 72.4%.

With `CCCCn1nnnc1C(c1cccc(O)c1)N1CCN(c2ccc(F)cc2)CC1` (stereo not shown) [Compound 54, 3-((1-butyl-1H-tetrazol-5-yl)(4-(4-fluorophenyl)piperazin-1-yl)methyl)phenol], the inhibition at 10 µM amounted to 51.3%.

As to `CCCCn1nnnc1C(c1cccc(O)c1)N1CCN(c2c(C)cccc2C)CC1` (stereo not shown) [Compound 55, 3-((1-butyl-1H-tetrazol-5-yl)(4-(2,6-dimethylphenyl)piperazin-1-yl)methyl)phenol], the inhibition at 10 µM came out at 109%.

With `CCCCn1nnnc1C(c1cccc(O)c1)N1CCN(C(=O)OC(C)(C)C)CC1` (stereo not shown) [Compound 56, tert-butyl 4-((1-butyl-1H-tetrazol-5-yl)(3-hydroxyphenyl)methyl)piperazine-1-carboxylate], the inhibition at 10 µM was determined as 24.6%.

As for `CCCCn1nnnc1C(c1cccc(O)c1)N1CCN(C(=O)OCc2ccccc2)CC1` (stereo not shown) [Compound 57, benzyl 4-((1-butyl-1H-tetrazol-5-yl)(3-hydroxyphenyl)methyl)piperazine-1-carboxylate], the inhibition at 10 µM worked out at 24.9%.

As to `CCCCn1nnnc1C(c1cccc(O)c1)N1CCN(c2cccc(C(F)(F)F)n2)CC1` (stereo not shown) [Compound 58, 3-((1-butyl-1H-tetrazol-5-yl)(4-(6-(trifluoromethyl)pyridin-2-yl)piperazin-1-yl)methyl)phenol], the inhibition at 10 µM worked out at 58.4%.

Consider `CCCCn1nnnc1C(c1cccc(O)c1)N1CCN(c2ccccc2OC)CC1` (stereo not shown) [Compound 59, 3-((1-butyl-1H-tetrazol-5-yl)(4-(2-methoxyphenyl)piperazin-1-yl)methyl)phenol], for which the inhibition at 10 µM stood at 94.5%.

As to `CCCCn1nnnc1C(c1cccc(O)c1)N1CCN(c2ncccc2C(F)(F)F)CC1` (stereo not shown) [Compound 60, 3-((1-butyl-1H-tetrazol-5-yl)(4-(3-(trifluoromethyl)pyridin-2-yl)piperazin-1-yl)methyl)phenol], the inhibition at 10 µM turned out to be 105%.

For `CCCCn1nnnc1C(c1cccc(O)c1)N1CCN(c2ncc(C(F)(F)F)cc2Cl)CC1` (stereo not shown) [Compound 61, 3-((1-butyl-1H-tetrazol-5-yl)(4-(3-chloro-5-(trifluoromethyl)pyridin-2-yl)piperazin-1-yl)methyl)phenol], the inhibition at 10 µM is 102%.

Turning to `CCCCn1nnnc1C(c1cccc(O)c1)N1CCN(c2ccccn2)CC1` (stereo not shown) [Compound 62, 3-((1-butyl-1H-tetrazol-5-yl)(4-(pyridin-2-yl)piperazin-1-yl)methyl)phenol], the inhibition at 10 µM is 19.9%.

As to `CCCCn1nnnc1C(c1cccc(O)c1)N1CCN(c2ccc(C(C)=O)cc2)CC1` (stereo not shown) [Compound 63, 1-(4-(4-((1-butyl-1H-tetrazol-5-yl)(3-hydroxyphenyl)methyl)piperazin-1-yl)phenyl)ethanone], the inhibition at 10 µM is 47.9%.

As to `CCCCn1nnnc1C(c1cccc(O)c1)N1CCN(c2ccccc2F)CC1` (stereo not shown) [Compound 65, 3-((1-butyl-1H-tetrazol-5-yl)(4-(2-fluorophenyl)piperazin-1-yl)methyl)phenol], the inhibition at 10 µM was found to be 79.8%.

Regarding `CCCCn1nnnc1C(c1cccc(O)c1)N1CCN(c2cccc(C)c2C)CC1` (stereo not shown) [Compound 66, 3-((1-butyl-1H-tetrazol-5-yl)(4-(2,3-dimethylphenyl)piperazin-1-yl)methyl)phenol], the inhibition at 10 µM was 106%.

As for `CCCCn1nnnc1C(c1cccc(O)c1)N1CCN(c2ccccc2)CC1` (stereo not shown) [Compound 67, 3-((1-butyl-1H-tetrazol-5-yl)(4-phenylpiperazin-1-yl)methyl)phenol], the inhibition at 10 µM came to 63.9%.

As for `CC(C)(C)n1nnnc1C(c1cccc(O)c1)N1CCN(C/C=C/c2ccccc2)CC1` (stereo not shown) [Compound 68, (E)-3-((1-(tert-butyl)-1H-tetrazol-5-yl)(4-cinnamylpiperazin-1-yl)methyl)phenol], the inhibition at 10 µM stood at 17.2%.

Consider `CCCCn1nnnc1C(CCc1ccccc1)N1CCN(c2c(Cl)cncc2Cl)CC1` (stereo not shown) [Compound 69, 1-(1-(1-butyl-1H-tetrazol-5-yl)-3-phenylpropyl)-4-(3,5-dichloropyridin-4-yl)piperazine], for which the inhibition at 10 µM was determined as 96%.

Regarding `CC(C)(C)n1nnnc1C(CCc1ccccc1)N1CCN(c2c(Cl)cncc2Cl)CC1` (stereo not shown) [Compound 70, 1-(1-(1-(tert-butyl)-1H-tetrazol-5-yl)-3-phenylpropyl)-4-(3,5-dichloropyridin-4-yl)piperazine], the inhibition at 10 µM came out at 109%.

Turning to `CCCCn1nnnc1C(c1cccc(O)c1)N1CCN(C/C=C/c2ccccc2)CC1` (stereo not shown) [Compound 71, (E)-3-((1-butyl-1H-tetrazol-5-yl)(4-cinnamylpiperazin-1-yl)methyl)phenol], the inhibition at 10 µM was 11.9%.

Turning to `CCCCn1nnnc1C(c1cccc(O)c1)N1CCN(c2cc(C)ccc2C)CC1` (stereo not shown) [Compound 72, 3-((1-butyl-1H-tetrazol-5-yl)(4-(2,5-dimethylphenyl)piperazin-1-yl)methyl)phenol], the inhibition at 10 µM came out at 112%.

Staying with this test, now noted: Table II.
The term IC50 denotes the concentration at which inhibition is half-maximal. Lower therefore signals inhibition by little substance. Take `CCCCn1nnnc1C(c1cc2ccccc2[nH]1)N1CCN(c2c(Cl)cncc2Cl)CC1` (stereo not shown) [Compound 46, 2-((1-butyl-1H-tetrazol-5-yl)(4-(3,5-dichloropyridin-4-yl)piperazin-1-yl)methyl)-1H-indole]: inhibition was half-maximal at 381 nM (IC50).

In the case of `CC(C)(C)n1nnnc1C(c1cc2ccccc2[nH]1)N1CCN(c2c(Cl)cncc2Cl)CC1` (stereo not shown) [Compound 47, 2-((1-(tert-butyl)-1H-tetrazol-5-yl)(4-(3,5-dichloropyridin-4-yl)piperazin-1-yl)methyl)-1H-indole], half-maximal inhibition (IC50) was put at 182 nM.

Molecule `CCCCn1nnnc1C(c1cccc(O)c1)N1CCN(c2ncc(C(F)(F)F)cc2Cl)CC1` (stereo not shown) [Compound 61, 3-((1-butyl-1H-tetrazol-5-yl)(4-(3-chloro-5-(trifluoromethyl)pyridin-2-yl)piperazin-1-yl)methyl)phenol] showed an IC50 of 2270 nM.

Consider `CC(C)(C)n1nnnc1C(CCc1ccccc1)N1CCN(c2c(Cl)cncc2Cl)CC1` (stereo not shown) [Compound 70, 1-(1-(1-(tert-butyl)-1H-tetrazol-5-yl)-3-phenylpropyl)-4-(3,5-dichloropyridin-4-yl)piperazine], for which the half-inhibitory concentration (IC50) is 1280 nM.

Consider `CCCCn1nnnc1C(c1cccc(O)c1)N1CCN(c2cc(C)ccc2C)CC1` (stereo not shown) [Compound 72, 3-((1-butyl-1H-tetrazol-5-yl)(4-(2,5-dimethylphenyl)piperazin-1-yl)methyl)phenol], for which the concentration for half-maximal inhibition (IC50) worked out at 790 nM.
